“Also recorded” adds a separate entry of the source.
How the values were obtained:
HaCaT cells = assay type: cell-based
Procedure: (§1) SCC13 and HaCaT cell lines were a kind gift from Prof. Alessio Nencioni (University of Genoa), and cells were maintained in Gibco™ Keratinocyte SFM 1X medium supplied with prequalified human recombinant epidermal growth factor 1–53 (EGF 1–53) and bovine pituitary extract (BPE, CAT# 17005042) (Thermo Fisher Scientific, Milano, Italy), with 50 IU/mL penicillin and 50 μg/mL streptomycin and cultured as in [36]. SCC13 and HaCaT cells were treated for 48 h with the putative SIRT2 inhibitor, and cell viability was analyzed by a sulforhodamine B assay. Briefly, 5000 cells/well were seeded in 96-well plates in triplicate and allowed to adhere overnight. The day after, the medium was replaced with fresh medium containing increasing concentrations of 5a. After 48 h, TCA was added, and samples were processed as previously described.

SCC13 cells = assay: Cell viability by sulforhodamine B assay, SCC13; assay type: cell-based; details: 48 h, increasing concentrations
Procedure: as §1

SIRT6 [1] = molecular target: T1, SIRT6 (Homo sapiens, UniProt Q8N6T7); assay: SIRT6 depalmitoylation reaction (H3K9Palm), recombinant protein; assay type: biochemical; details: 150 µM, SD always ≤10%
T1 sequence (Q8N6T7 whole entry, species assumed): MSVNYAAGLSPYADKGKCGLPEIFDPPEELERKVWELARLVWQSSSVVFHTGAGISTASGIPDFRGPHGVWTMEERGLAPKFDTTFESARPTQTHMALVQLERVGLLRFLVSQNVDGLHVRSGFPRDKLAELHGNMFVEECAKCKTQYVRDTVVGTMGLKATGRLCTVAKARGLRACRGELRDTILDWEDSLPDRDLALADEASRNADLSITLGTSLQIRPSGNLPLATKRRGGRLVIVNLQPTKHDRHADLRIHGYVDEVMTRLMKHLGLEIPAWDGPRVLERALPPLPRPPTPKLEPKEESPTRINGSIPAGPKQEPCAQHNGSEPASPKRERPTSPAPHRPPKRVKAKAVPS
Procedure: (§2) Next, the selectivity of the compounds for SIRT2 against other sirtuins was also determined. The compounds were tested at the final concentration of 150 µM in the deacetylation reaction of SIRT1, SIRT3 and SIRT6, with this last one being promoted by the addition of the SIRT6 activator MDL-800 and also in the depalmitoylation reaction of SIRT6.

SIRT3 = molecular target: T2, SIRT3 (Homo sapiens, UniProt Q9NTG7); assay: SIRT3 deacetylation reaction, recombinant protein; assay type: biochemical; details: deacetylase activity, SD always ≤10%
T2 sequence (Q9NTG7 1-399): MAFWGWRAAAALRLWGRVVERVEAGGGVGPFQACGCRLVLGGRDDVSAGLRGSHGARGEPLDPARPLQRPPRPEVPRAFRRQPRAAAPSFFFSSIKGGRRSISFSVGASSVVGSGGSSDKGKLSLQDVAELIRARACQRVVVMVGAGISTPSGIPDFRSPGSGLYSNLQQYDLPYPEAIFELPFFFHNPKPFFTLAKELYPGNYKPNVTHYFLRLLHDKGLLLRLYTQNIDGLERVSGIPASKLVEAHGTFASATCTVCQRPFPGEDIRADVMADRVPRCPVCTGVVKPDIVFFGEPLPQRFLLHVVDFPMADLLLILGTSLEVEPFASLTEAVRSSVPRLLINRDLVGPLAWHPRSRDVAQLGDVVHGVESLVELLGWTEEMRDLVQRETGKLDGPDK
Procedure: as §2

SIRT2 [2] = molecular target: T3, SIRT2 (Homo sapiens, UniProt Q8IXJ6); assay: SIRT2 deacetylase activity, recombinant SIRT2 with acetylated peptide H3K9Ac and NAD+
T3 sequence (Q8IXJ6 1-389): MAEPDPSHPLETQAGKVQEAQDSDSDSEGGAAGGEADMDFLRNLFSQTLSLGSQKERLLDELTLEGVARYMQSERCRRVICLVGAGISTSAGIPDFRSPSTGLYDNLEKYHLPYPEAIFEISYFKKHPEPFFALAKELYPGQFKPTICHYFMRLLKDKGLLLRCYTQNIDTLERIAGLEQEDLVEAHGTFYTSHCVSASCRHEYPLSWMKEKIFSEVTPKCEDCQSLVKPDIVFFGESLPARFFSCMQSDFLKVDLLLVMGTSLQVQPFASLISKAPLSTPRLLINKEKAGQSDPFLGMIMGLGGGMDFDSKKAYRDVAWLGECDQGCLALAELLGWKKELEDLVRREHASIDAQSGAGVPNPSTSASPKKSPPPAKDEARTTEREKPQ
Procedure: The effect of urea derivatives on SIRT2 deacetylase activity was evaluated upon incubation of recombinant SIRT2 with an acetylated peptide (H3K9Ac, a peptide acetylated on Lys 9) and the co-substrate NAD^+.

SIRT6 [3] = molecular target: T1, SIRT6; assay: SIRT6 deacetylation reaction promoted by the SIRT6 activator MDL-800, recombinant protein; assay type: biochemical; details: 150 µM, with SIRT6 activator MDL-800, SD always ≤10%
Procedure: as §2

[4] = tested on: acetylation of α-tubulin in SCC13 cells; assay: Western blot of α-tubulin acetylation (endogenous SIRT2 inhibition) in SCC13 cells; assay type: cell-based; details: 5 μM, 48 h, Western blot normalized to total α-tubulin
Procedure: To confirm that the effect of 5a on cell viability was due to its ability to inhibit the endogenous SIRT2, Western blot analyses were performed to quantify the level of acetylation of α-tubulin, a direct substrate of SIRT2 enzymatic activity.
SCC13 cells (3 × 10^5) were seeded in 60 mm Petri dishes and left to adhere overnight. The day after, the medium was replaced with a medium containing 5a at a final concentration of 5 µM or the respective amount of DMSO vehicle. After 48 h, the medium was removed, and cells were washed with PBS and lysed by scraping with 100 µL of lysis buffer (25 mM Tris-HCl, pH 7.8; 2 mM DTT; 2 mM EDTA, 10% glycerol; 1% Triton® X-100). The lysate was clarified by centrifugation, and the protein concentration was measured using the Bradford assay. Twenty µg of proteins were loaded on a 10% polyacrylamide gel and then transferred to a nitrocellulose membrane. The membrane was saturated with 5% skim milk powder solution in TBS-Tween 0.05%. To determine the acetylation of alpha-tubulin, membranes were incubated with an anti-acetyl-alpha-tubulin antibody (#5335, Cell Signaling Technology, Danvers, MA, USA), whose signal was normalized on the total amount of alpha-tubulin (#2125, Cell Signaling Technology).

SIRT1 = molecular target: T4, SIRT1 (Homo sapiens, UniProt Q96EB6); assay: SIRT1 deacetylation reaction, recombinant protein; assay type: biochemical; details: deacetylase activity, SD always ≤10%
T4 sequence (Q96EB6 1-747): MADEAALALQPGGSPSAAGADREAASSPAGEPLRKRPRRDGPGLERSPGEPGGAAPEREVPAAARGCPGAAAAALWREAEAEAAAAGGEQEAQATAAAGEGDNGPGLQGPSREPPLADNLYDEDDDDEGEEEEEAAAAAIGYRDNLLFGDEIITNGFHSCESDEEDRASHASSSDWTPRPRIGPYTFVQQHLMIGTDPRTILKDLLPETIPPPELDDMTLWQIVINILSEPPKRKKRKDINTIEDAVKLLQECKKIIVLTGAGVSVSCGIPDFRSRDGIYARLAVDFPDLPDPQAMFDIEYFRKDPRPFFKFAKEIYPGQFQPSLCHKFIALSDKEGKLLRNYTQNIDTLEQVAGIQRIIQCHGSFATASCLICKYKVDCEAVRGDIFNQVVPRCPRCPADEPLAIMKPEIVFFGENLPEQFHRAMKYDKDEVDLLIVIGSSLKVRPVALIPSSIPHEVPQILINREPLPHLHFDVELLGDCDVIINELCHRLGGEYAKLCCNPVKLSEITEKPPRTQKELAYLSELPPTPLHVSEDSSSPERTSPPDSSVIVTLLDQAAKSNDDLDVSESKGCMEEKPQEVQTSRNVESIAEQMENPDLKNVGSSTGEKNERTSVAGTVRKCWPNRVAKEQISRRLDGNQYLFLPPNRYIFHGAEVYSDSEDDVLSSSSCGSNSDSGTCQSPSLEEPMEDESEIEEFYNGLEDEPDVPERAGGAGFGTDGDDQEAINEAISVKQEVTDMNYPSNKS
Procedure: as §2

SIRT2 [5] = molecular target: T3, SIRT2; parameters: method as in PMID 37765125; details: at 150 μM; cited from earlier work

% Inhibition SIRT6 (Depalmiotoylase) (SIRT6 [1]) | inhibition at 150 µM (SIRT3) | IC50 (SIRT2 [2]) | inhibition at 150 µM (SIRT2 [2]; read-out: % Inhibition SIRT2 (at 150 μM)) | % Inhibition SIRT6 (Deacetylase) (SIRT6 [3]) | inhibition at 150 µM (SIRT1) | Structure (SMILES) | toxicity (cell viability, SRB assay) (HaCaT cells) | cell death / toxicity (cell viability, SRB assay) (SCC13 cells) | level of α-tubulin acetylation vs control cells [4] | SIRT2 inhibition percentage (SIRT2 [5])
ni | 36% | 9 ± 2 µM | 98 ± 5% | ni | 100% | CCOC(=O)c1sc(NC(=O)Nc2cccc(OC)c2)nc1-c1ccc(Br)cc1 [Compound 5a, Ethyl4-(4-bromophenyl)-2-(3-(3-methoxyphenyl)ureido)thiazole-5 carboxylate] | not on the normal keratinocyte cell line HaCaT | concentration-dependent toxicity; also recorded: concentration-dependent cell death | increases α-tubulin acetylation; also recorded: increased levels of alpha-tubulin acetylation | –
– | – | – | – | – | – | CCc1ccc(Nc2nc(-c3ccc(Cl)cc3)cs2)cc1SC [Compound T1] | – | – | – | 100%
